Measured values as given in US20080044904A1, “Glyphosate N-acetyltransferase (GAT) confers glyphosate resistance when expressed in plastids” (priority 2005, published 2008).

Tests used:
[1] = system: Nt-pMHB125 and Nt-pMHB126 leaves (tobacco cells expressing GAT in chloroplasts); assay: Leaf section test on RMOP culture medium containing glyphosate, plants expressing GAT in chloroplasts; type: cell-based
Description: (§1) Shown are three-week-old cultures initiated from Nt-pMHB125 and Nt-pMHB126 leaves and wild type control. The culture medium and general tissue culture protocols are described in references Svab and Maliga, 1993; and Lutz et al., 2006.
(§2) The ability of leaf sections or stem sections of plants to germinate and/or grow as green plants in a culture containing selective levels of herbicides is a reliable assay of glyphosate resistance (Ye et al. (2003) Plant Physiol., 133:402-410; Ye et al. (2001) Plant J., 25:261-270). Selective levels of glyphosate in the culture medium were in the range of 50 μm to 200 μm, to which plants expressing the CP4 EPSPS gene were resistant. Therefore, sections of the Nt-pMHB125, Nt-pMHB126 and Nt-pMHB127 leaves were inoculated onto RMOP medium containing 100 μm glyphosate (Glyphosate-isopropylammonium). […] Such high level of resistance was sufficient to protect the plants from glyphosate treatment under filed conditions. The new glyphosate resistance (GAT) genes, when expressed in plastids, enable efficient weed control with an environmentally friendly herbicide. Since plastids are not transmitted via pollen in most crops, the GAT gene will not be disseminated via pollen, providing an efficient containment tool (Bock, R. (2001) J. Mol. Biol., 312:425-438; Maliga, P. (2004) Annu. Rev. Plant Biol., 55:289-313).

wild-type leaf sections = assay: Leaf section test on RMOP culture medium containing glyphosate, wild type control; type: cell-based, tobacco; conditions: RMOP medium containing 100 μm glyphosate (Glyphosate-isopropylammonium); three-week-old cultures
Description: as §1, §2

Structure (SMILES): O=C(O)CNCP(=O)(O)O [glyphosate, N-phosphonomethylglycine]
- resistance of tobacco cells expressing GAT in chloroplasts ([1]; 100 μM glyphosate in the RMOP culture medium, three-week-old cultures from Nt-pMHB125 and Nt-pMHB126 leaves): resistant
- growth of Nt-pMHB125 and Nt-pMHB126 leaf sections in the presence of the herbicide ([1]; RMOP medium containing 100 μm glyphosate (Glyphosate-isopropylammonium), three-week-old cultures): formed abundantly proliferating green calli
- growth of wild-type leaf sections in the presence of the herbicide (wild-type leaf sections): failed to grow and bleached
